According to ChEMBL document CHEMBL3271995, “Antineoplastic agents. 2. Structure-activity studies on N-protected vinyl, 1,2-dibromoethyl, and cyanomethyl esters of several amino acids” (J Med Chem, 1977):
The source made the active and inactive calls. The rule behind the calls is not given here.

Columns and labels:
Ehrlich [1] = assay: Antineoplastic activity against mouse EAC allografted in CF1 mouse assessed as tumor growth inhibition on day 7 measured at 33 mg/kg; format: functional; conditions: 168 h, read-out: TGI
Ehrlich [2] = assay: Antineoplastic activity against mouse EAC allografted in CF1 mouse assessed as animal survival on day 7 measured at 33 mg/kg; format: functional, organism-based; set-up: dose 33 mg/kg
Ehrlich [3] = assay: Antineoplastic activity against mouse EAC allografted in CF1 mouse assessed as packed cell volume on day 7 measured at 33 mg/kg (reference value: 32.75 +/- 7.87%); format: functional
Ehrlich [4] = assay: Antineoplastic activity against mouse EAC allografted in CF1 mouse assessed as ascites volume on day 7 measured at 33 mg/kg (reference value: 4.1 +/- 1.24 mL); format: functional
[5] = Acute toxicity in CF1 mouse; format: organism-based; conditions: in vivo
P388 [6] = assay: Antitumor activity against mouse P388 cells allografted in DBA/2 mouse assessed as animal survival days at 20 mg/kg/day, ip; format: functional; conditions: route intraperitoneal
P388 [7] = assay: Antitumor activity against mouse P388 cells allografted in DBA/2 mouse assessed as median survival time of treated versus control mice (T/C) at 20 mg/kg/day, ip; format: functional; conditions: route intraperitoneal
W256 [8] = assay: Antitumor activity against rat Walker 256 cells allografted in Sprague-Dawley rat assessed as animal survival days at 2.5 mg/kg/day, ip; format: functional; conditions: route intraperitoneal
W256 [9] = assay: Antitumor activity against rat Walker 256 cells allografted in Sprague-Dawley rat assessed as survival time (treated/control) at 2.5 mg/kg/day, ip; format: functional; conditions: route intraperitoneal

Structure (SMILES)	inhibition in vivo at 33 mg/kg (Ehrlich [1]) [%]	Activity (Ehrlich [2])	Activity (Ehrlich [3]) [%]	Activity (Ehrlich [4]) [mL]	LD50 [5] [µmol/kg]	Survival (P388 [6]) [days]	T/C (P388 [7]) [%]	Survival (W256 [8]) [days]	T/C (W256 [9]) [%]
N#CCOC(=O)CC[C@H](NC(=O)OCc1ccccc1)C(=O)OCC#N	35	Active	32	3.2					
CC(C)C[C@H](NC(=O)OCc1ccccc1)C(=O)OCC#N	27	Active	38	2.7					
O=C(O)CNC(=O)OCc1ccccc1	97		22	0.2					
C=COC(=O)[C@H](Cc1ccccc1)NC(=O)c1ccccc1	56.8	Active	9.8	2.1					
CC=O	43		56	2					
Cc1ccc(S(=O)(=O)N[C@@H](Cc2ccccc2)C(=O)OCC#N)cc1	97		3.4	0.4					
O=C(N[C@@H](Cc1ccccc1)C(=O)OC(Br)CBr)OCc1ccccc1 (stereo partly specified)	100	Active	1.4	0					
C=COC(=O)[C@H](Cc1ccc(O)cc1)NC(=O)OCc1ccccc1	16	Active	29.7	3.9					
O=C(O)CC[C@H](NC(=O)OCc1ccccc1)C(=O)O	81	Active	28	0.7	1780				
Cc1ccc(S(=O)(=O)N[C@@H](Cc2ccc(O)cc2)C(=O)OCC#N)cc1	56		15.8	3.8	220				
C#CCOC(=O)CNC(=O)OCc1ccccc1	0	Active	27	5.2					
Cc1ccc(S(=O)(=O)N[C@@H](Cc2ccccc2)C(=O)CCl)cc1 [TPCK]	100		0.05	0.01					
O=c1[nH]cc(F)c(=O)[nH]1 [FLUOROURACIL]						11	136		
C=COC(=O)[C@H](CC(C)C)NC(=O)OCc1ccccc1	48	Active	38	0.9					
C=COC(=O)CCCNC(=O)OCc1ccccc1	6	Active	39.5	3.2					
N#CCOC(=O)[C@H](Cc1ccccc1)NC(=O)c1ccccc1	47		13.2	1.8					
C=COC(=O)CCCCCNC(=O)OCc1ccccc1	75	Active	36	0.6					
Cc1ccc(S(=O)(=O)N[C@@H](Cc2ccc(OS(=O)(=O)c3ccc(C)cc3)cc2)C(=O)OCC#N)cc1	53	Active	6.5	0.8					
Sc1ncnc2nc[nH]c12 [MERCAPTOPURINE ANHYDROUS]	99.6	Active	0.3	0.7		12	148		
C#CCOC(=O)[C@H](CC(C)C)NC(=O)OCc1ccccc1	85	Active	23	0.5	1650	9.1	112		
N#CCOC(=O)CCCNC(=O)OCc1ccccc1	71		48.8	0.6					
O=Cc1ccccc1 [BENZALDEHYDE]	69	Active	49	0.8					
N[C@@H](Cc1ccc(N(CCCl)CCCl)cc1)C(=O)O	99	Active	3	0.1				23	305
N#CCOC(=O)[C@H](Cc1c[nH]c2ccccc12)NC(=O)OCc1ccccc1	38	Active	19.7	4.3					

Structure (SMILES)	inhibition in vivo at 33 mg/kg (Ehrlich [1]) [%]	Activity (Ehrlich [2])	Activity (Ehrlich [3]) [%]	Activity (Ehrlich [4]) [mL]	LD50 [5] [µmol/kg]	Survival (P388 [6]) [days]	T/C (P388 [7]) [%]	Survival (W256 [8]) [days]	T/C (W256 [9]) [%]
C=COC(=O)[C@H](Cc1ccccc1)NS(=O)(=O)c1ccc(C)cc1	56.8		19.2	3.8					
O=C(O)CCCCCNC(=O)OCc1ccccc1	63	Active	33	1					
C#CCOC(=O)C[C@H](NC(=O)OCc1ccccc1)C(=O)OCC#C	31	Active	21	3.7					
O=C(O)C[C@H](NC(=O)OCc1ccccc1)C(=O)O	31	Active	21	3.7					
C#CCOC(=O)CCCNC(=O)OCc1ccccc1	20	Active	34.5	2.3		6.7	83	23	305
O=C(CNC(=O)OCc1ccccc1)OC(Br)CBr (stereo unspecified)	100	Active	0	0	370	2.2	28	10.1	135
C=COC(=O)[C@H](Cc1c[nH]c2ccccc12)NC(=O)OCc1ccccc1	87	Active	14.3	1.3				8	106
C=COC(=O)[C@@H]1CCCN1C(=O)OCc1ccccc1	73		35	1	1820				
C=COC(=O)[C@H](Cc1ccccc1)NC(=O)OCc1ccccc1	99.9	Active	0.4	0.1	> 6150				
N#CCOC(=O)[C@H](Cc1ccc(O)cc1)NC(=O)OCc1ccccc1	0	Active	31.1	4.5					
C=COC(=O)[C@H](Cc1ccc(O)cc1)NS(=O)(=O)c1ccc(C)cc1	75	Active	17.5	1.9					
O=C(CCCNC(=O)OCc1ccccc1)OC(Br)CBr (stereo unspecified)	98.7		2	0.6		8.1	100	18.1	226
C=COC(=O)CNC(=O)OCc1ccccc1	63	Active	34	1.5	2130				
O=C(O)CCCNC(=O)OCc1ccccc1	71	Active	32.3	0.8					
O=C(CCCCCNC(=O)OCc1ccccc1)OC(Br)CBr (stereo unspecified)	50		30	1.7					
N#CCOC(=O)[C@H](CCC(N)=O)NC(=O)OCc1ccccc1	51		40	2					
O=C(OC(Br)CBr)[C@@H]1CCCN1C(=O)OCc1ccccc1 (stereo partly specified)	84	Active	10	2.1	190				
N#CCOC(=O)C[C@H](NC(=O)OCc1ccccc1)C(=O)OCC#N	7		33	4.7					
O=C(O)[C@@H]1CCCN1C(=O)OCc1ccccc1	53	Active	32	1.9					
N#CCOC(=O)[C@H](Cc1ccccc1)NC(=O)OCc1ccccc1	99.9	Active	0.1	0.2					
N#CCOC(=O)CCCCCNC(=O)OCc1ccccc1	54	Active	41	1					
C=COC(=O)CC[C@H](NC(=O)OCc1ccccc1)C(=O)OC=C	69	Active	37	0.9	1500				
N#CCOC(=O)CNC(=O)OCc1ccccc1	29	Active	44.7	2.2					
CC(C)C[C@H](NC(=O)OCc1ccccc1)C(=O)OC(Br)CBr (stereo partly specified)	99	Active	14	0.002	500	9.1	112	8.5	113
